Measured values as given in US5256528A, “Magenta image-dye couplers of improved hue” (Eastman Kodak Company, priority 1992, dated 1993).
Values belong to the compound of their own block, whether it stands above or below them.

Tests used:
[1] = Photographic gamma (slope of status M green density vs. exposure), C-41 process
Protocol: (§1) Dispersions of the comparative couplers B1-B3 and B8 and of the couplers of this invention M1-M3 were prepared by dissolving the coupler in the coupler solvent S1 plus the auxiliary solvent 2-(2-butoxyethoxy)ethyl acetate and then dispersing this oil phase in an aqueous solution of gelatin and surfactant using an ultrasonic probe. The dispersions were chilled and washed for 6 hr at 4° C. to remove the auxiliary solvent. The dispersions contained approximately 8.8% coupler, 4.4% S1 and 6% gelatin by weight.
(§2) The dispersions were coated at 1.04 mmole/sq m together with a silver bromoiodide emulsion on a transparent acetate support in the format shown below. Hardened film strips were exposed through a 0-4 neutral density stepwedge and daylight V and WRATTEN 9 filters and subjected to a standard C-41 process at 37.8° C. The process consists of 2.5 min in color developer, 4 min in a ferric EDTA/PDTA bleach solution, 2 min wash, 4 min fix and 2 min final wash. Photographic gamma values were obtained from the slopes of plots of status M green density vs. exposure for processed samples. Absorption spectra of the dye-containing processed films were measured at a density near 1.0 on a spectrophotometer and the wavelengths of maximum absorption (λ max values) were recorded.
(§3) BVSM* Hardener 0.06 g/sq m
(§4) Coupler Solvent S1 1/2 coupler laydown
(§5) Dispersions of couplers B3, M1 and M5 with S1 (1:0.5) were prepared and coated as in Example 2. Film strips of these coatings were exposed, processed and analyzed as in Example 2. λmax values and gamma values associated with these film compositions are listed in Table III. This series further illustrates the use of electron-withdrawing substituents to obtain magenta dyes of the proper hue.
(§6) Dispersions of the comparative couplers B4, B5 and B8 and the couplers of this invention M6-M11 were prepared and coated as in Example 2. The coupler solvent S1 was again used at a 1:0.5 coupler:S1 weight ratio. Film strips of the hardened coatings were exposed, processed and analyzed as in Example 2. Couplers B4 and M6-M8 have a strongly electron-withdrawing alkoxycarbonyl substituent in the R2 position and couplers B5 and M9-M11 have a strongly electron-withdrawing alkylsulfonyl group at R2. […] The couplers of this invention, M6-M11, which have strong electron-withdrawing groups in each ring, yield dyes having the desired bathochromic hues, as shown by the λmax values. The gamma values obtained with the couplers of this invention are suitably high to be useful in photographic materials, as indicated by comparison to the gamma obtained from the commercial coupler B8.
(§7) Dispersions of the comparison couplers B6 and B7, and of the couplers of this invention M12-M17, were prepared using the coupler solvent Sl as in Example 2. These were coated as in Example 2, and hardened film strips were exposed, processed and analyzed as in Example 2. The results obtained are summarized in Table V. In this example all of the couplers have sulfamoyl or alkylsulfonyl substituents in the R1 position and the R2 substituent on the 3-anilino ring is varied. Comparative couplers B6 and B7 have chloro substituents at R2, whereas M12-M17 of this invention have strong electron withdrawing R2 groups. […] The gamma values of the couplers of this invention are similar to those of the comparative couplers.

[2] = Absorption spectra of dye-containing processed films (λmax), C-41 process; assay type: physicochemical
Protocol: as §1, §2, §3, §4, §5, §6, §7

[3] = Photographic gamma with coupler solvents and addenda (KODAK FLEXICOLOR C-41 variants); details: Table VI, no aniline, no DIR coupler
Protocol: (§8) Dispersions of the coupler B3 were prepared with coupler solvents S1 and C2, both at a 1:1 B3:coupler solvent weight ratio. Dispersions of coupler M1 were prepared with C2 at 1:1 and with C2 plus aniline A1 at a 1:0.8:0.2 M1:C2:A1 weight ratio. These dispersions were prepared by dissolving the coupler in a mixture of coupler solvent, aniline A1 (optional) and cyclohexanone. The coupler:cyclohexanone weight ratio was 1:3. This mixture was then added to an aqueous solution of gelatin and ALKANOL XC surfactant. The two-phase mixture was then passed through a colloid mill to disperse the coupler-containing oil phase in the aqueous phase in the form of small droplets. The dispersion was then chilled, noodled and washed to remove the auxiliary cyclohexanone solvent. The resulting dispersions contained approximately 2% by weight of coupler and 6% by weight of gelatin.
The dispersions were then coated on a transparent support together with a silver bromoiodide emulsion in the format shown below. Coatings were then exposed through a stepwedge and subjected to variants of the KODAK FLEXICOLOR (C-41) process described below. One set of film samples was processed with an acetic acid stop bath between the development and bleach steps (process A). A second set of films was processed without a stop bath and with the bleach pH adjusted to 6.0 instead of the normal 5.25 (process B). This is intended to simulate behavior in a "seasoned" bleach whose pH increases due to carry-over of base from the developer solution. The difference between Dmin values (densities obtained in unexposed portions of the films) between process A and process B are due to continued coupling between coupler and developer carried over into the bleach. […] Since conditions similar to process B are encountered in simplified trade processing, it is desirable to minimize continued coupling, as measured by the delta Dmin of process B - process A. These delta Dmin values are listed in Table VI along with λmax values and gamma values (obtained from plots of status M green density versus exposure). […]

[4] = Continued coupling in bleach, delta Dmin process B - process A; details: Table VI, no aniline, no DIR coupler
Protocol: as §8
(§9) The dispersions were then coated on a transparent support together with a silver bromoiodide emulsion in the format shown below. Coatings were then exposed through a stepwedge and subjected to variants of the KODAK FLEXICOLOR (C-41) process described below. One set of film samples was processed with an acetic acid stop bath between the development and bleach steps (process A). A second set of films was processed without a stop bath and with the bleach pH adjusted to 6.0 instead of the normal 5.25 (process B). This is intended to simulate behavior in a "seasoned" bleach whose pH increases due to carry-over of base from the developer solution. The difference between Dmin values (densities obtained in unexposed portions of the films) between process A and process B are due to continued coupling between coupler and developer carried over into the bleach. Both the lack of a stop bath and the high bleach pH in process B aggravate continued coupling. It is desirable to minimize Dmin density and Dmin variability due to continued coupling. Since conditions similar to process B are encountered in simplified trade processing, it is desirable to minimize continued coupling, as measured by the delta Dmin of process B - process A. These delta Dmin values are listed in Table VI along with λmax values and gamma values (obtained from plots of status M green density versus exposure).
(§10) 2.6 g/sq m Gelatin + 1.75 weight % BVSME* Hardener
(§11) Coupler Solvent + or - A1 @ equal weight to coupler
(§12) 1.08 g/sq m Silver Emulsion
(§13) //////Cellulose Acetate Butyrate Support//////
or Standard C-41 Bleach II
2B Bleach II Adjusted to pH = 6.0
(§14) Also included in this comparison was a 1:1 dispersion of M1 plus C2 to which was added the DIR coupler D1 (shown above) at a M1:D1 weight ratio of 1:0.045.

[5] = λmax with coupler solvents and addenda (KODAK FLEXICOLOR C-41 variants); assay type: physicochemical; details: Table VI, no aniline, no DIR coupler
Protocol: as §8, §9, §10, §11, §12, §13, §14

[6] = Table IV, Example 5, coupler:S1 1:0.5
[7] = Table V, Example 6, coupler solvent S1
[8] = Table I, Example 2, coupler:S1 1:0.5
[9] = Table III, Example 4, coupler:S1 1:0.5

λmax(nm) (+-0.5) [2, 6]: 548.5 nm
SMILES: CCCCCCCCCCCCOC(=O)c1ccc(NC2=NN(c3c(Cl)cc(S(C)(=O)=O)cc3Cl)C(=O)C2Sc2cc(C(C)(C)CC(C)(C)C)ccc2OCCCC)c(Cl)c1 (stereo not shown) [Coupler M7]
Gamma [1, 6]: 3.1

λmax(nm) (+-0.5) [2, 6]: 551.0 nm
SMILES: CCCCCCCCCCCCS(=O)(=O)c1ccc(NC2=NN(c3c(Cl)cc(S(C)(=O)=O)cc3Cl)C(=O)C2Sc2cc(C(C)(C)CC(C)(C)C)ccc2OCCCC)c(Cl)c1 (stereo not shown) [Coupler M10]
Gamma [1, 6]: 3.2

λmax(nm) (+-0.5) [2, 7]: 550.5 nm
SMILES: CCCCCCCCCCCCS(=O)(=O)c1cc(Cl)c(N2N=C(Nc3ccc(C#N)cc3Cl)C(Sc3cc(C(C)(C)CC(C)(C)C)ccc3OCCCC)C2=O)c(Cl)c1 (stereo not shown) [Coupler M17]
Gamma [1, 7]: 3.5

λmax(nm) (+-0.5) [2, 7]: 549.5 nm
SMILES: CCCCCCCCCCCCNS(=O)(=O)c1cc(Cl)c(N2N=C(Nc3ccc(S(C)(=O)=O)cc3Cl)C(Sc3cc(C(C)(C)CC(C)(C)C)ccc3OCCCC)C2=O)c(Cl)c1 (stereo not shown) [Coupler M13]
Gamma [1, 7]: 3.9

λmax(nm) (+-0.5) [2, 6]: 548.5 nm
SMILES: CCCCCCCCCCCCOC(=O)c1ccc(NC2=NN(c3c(Cl)cc(C#N)cc3Cl)C(=O)C2Sc2cc(C(C)(C)CC(C)(C)C)ccc2OCCCC)c(Cl)c1 (stereo not shown) [Coupler M8]
Gamma [1, 6]: 4.1

λmax(nm) (+-0.5) [2, 6]: 551.0 nm
SMILES: CCCCCCCCCCCCS(=O)(=O)c1ccc(NC2=NN(c3c(Cl)cc(S(=O)(=O)N4CCOCC4)cc3Cl)C(=O)C2Sc2cc(C(C)(C)CC(C)(C)C)ccc2OCCCC)c(Cl)c1 (stereo not shown) [Coupler M9]
Gamma [1, 6]: 3.2

λmax(nm) (+-0.5) [2, 7]: 550.5 nm
SMILES: CCCCCCCCCCCCS(=O)(=O)c1cc(Cl)c(N2N=C(Nc3ccc(S(C)(=O)=O)cc3Cl)C(Sc3cc(C(C)(C)CC(C)(C)C)ccc3OCCCC)C2=O)c(Cl)c1 (stereo not shown) [Coupler M16]
Gamma [1, 7]: 3.2

λmax(nm) (+-0.5) [2, 7]: 551.0 nm
SMILES: CCCCCCCCCCCCS(=O)(=O)c1cc(Cl)c(N2N=C(Nc3ccc(S(=O)(=O)N4CCOCC4)cc3Cl)C(Sc3cc(C(C)(C)CC(C)(C)C)ccc3OCCCC)C2=O)c(Cl)c1 (stereo not shown) [Coupler M15]
Gamma [1, 7]: 3.4

λmax(nm) (+-0.5) [2, 7]: 549.5 nm
SMILES: CCCCCCCCCCCCNS(=O)(=O)c1cc(Cl)c(N2N=C(Nc3ccc(S(=O)(=O)N4CCOCC4)cc3Cl)C(Sc3cc(C(C)(C)CC(C)(C)C)ccc3OCCCC)C2=O)c(Cl)c1 (stereo not shown) [Coupler M12]
Gamma [1, 7]: 3.1

λmax(nm) (+-0.5) [2, 6]: 548.5 nm
SMILES: CCCCCCCCCCCCOC(=O)c1ccc(NC2=NN(c3c(Cl)cc(S(=O)(=O)N4CCOCC4)cc3Cl)C(=O)C2Sc2cc(C(C)(C)CC(C)(C)C)ccc2OCCCC)c(Cl)c1 (stereo not shown) [Coupler M6]
Gamma [1, 6]: 3.7

λmax(nm) (+-0.5) [2, 8]: 551.0 nm
SMILES: CCCCCCCCCCCCNS(=O)(=O)c1ccc(NC2=NN(c3c(Cl)cc(S(=O)(=O)N4CCOCC4)cc3Cl)C(=O)C2Sc2ccccc2N(CCCCCCCCCCCC)C(=O)C(C)(C)C)c(Cl)c1 (stereo not shown) [Coupler M3]
Gamma [1, 8]: 4.4

λmax(nm) (+-0.5) [2, 7]: 550.5 nm
SMILES: CCCCCCCCCCCCNS(=O)(=O)c1cc(Cl)c(N2N=C(Nc3ccc(C#N)cc3Cl)C(Sc3cc(C(C)(C)CC(C)(C)C)ccc3OCCCC)C2=O)c(Cl)c1 (stereo not shown) [Coupler M14]
Gamma [1, 7]: 3.1

λmax(nm) (+-0.5) [2, 8]: 551.5 nm
SMILES: CCCCCCCCCCCCNS(=O)(=O)c1ccc(NC2=NN(c3c(Cl)cc(S(=O)(=O)N4CCOCC4)cc3Cl)C(=O)C2Sc2ccccc2N(C)C(=O)CCCCCCCCCCC)c(Cl)c1 (stereo not shown) [Coupler M2]
Gamma [1, 8]: 3.9

Further lines, the compound ahead of its results:

SMILES: CCCCCCCCCCCCS(=O)(=O)c1ccc(NC2=NN(c3c(Cl)cc(Cl)cc3Cl)C(=O)C2Sc2cc(C(C)(C)CC(C)(C)C)ccc2OCCCC)c(Cl)c1 (stereo not shown) [Coupler B5, reference compound]
Gamma [1, 6]: 4.2

SMILES: CCCCCCCCCCCCS(=O)(=O)c1cc(Cl)c(N2N=C(Nc3ccc(Cl)cc3Cl)C(Sc3cc(C(C)(C)CC(C)(C)C)ccc3OCCCC)C2=O)c(Cl)c1 (stereo not shown) [Coupler B7, reference compound]
Gamma [1, 7]: 3.3

SMILES: CCCCCCCCCCCCOC(=O)c1ccc(NC2=NN(c3c(Cl)cc(Cl)cc3Cl)C(=O)C2Sc2cc(C(C)(C)CC(C)(C)C)ccc2OCCCC)c(Cl)c1 (stereo not shown) [Coupler B4, reference compound]
Gamma [1, 6]: 4.1

SMILES: CCC(C)(C)c1ccc(OCC(=O)Nc2cccc(C(=O)NC3=NN(c4c(Cl)cc(Cl)cc4Cl)C(=O)C3)c2)c(C(C)(C)CC)c1 [Coupler B8, reference compound]
Gamma [1, 8]: 2.3 | Gamma [1, 6]: 2.0 | λmax(nm) (+-0.5) [2, 8]: 555.0 nm | λmax(nm) (+-0.5) [2, 6]: 553.0 nm

SMILES: CCCCCCCCCCCCNS(=O)(=O)c1cc(Cl)c(N2N=C(Nc3ccc(Cl)cc3Cl)C(Sc3cc(C(C)(C)CC(C)(C)C)ccc3OCCCC)C2=O)c(Cl)c1 (stereo not shown) [Coupler B6, reference compound]
Gamma [1, 7]: 3.4

SMILES: CCCCCCCCCCCCNS(=O)(=O)c1ccc(NC2=NN(c3c(Cl)cccc3Cl)C(=O)C2Sc2cc(C(C)(C)CC(C)(C)C)ccc2OCCCC)c(Cl)c1 (stereo not shown) [Coupler B2, reference compound]
Gamma [1, 8]: 5.3 | λmax(nm) (+-0.5) [2, 8]: 542.0 nm

SMILES: CCCCCCCCCCCCNS(=O)(=O)c1ccc(NC2=NN(c3c(Cl)cc(OC)cc3Cl)C(=O)C2Sc2cc(C(C)(C)CC(C)(C)C)ccc2OCCCC)c(Cl)c1 (stereo not shown) [Coupler B1, reference compound]
Gamma [1, 8]: 4.8 | λmax(nm) (+-0.5) [2, 8]: 539.5 nm

SMILES: CCCCCCCCCCCCNS(=O)(=O)c1ccc(NC2=NN(c3c(Cl)cc(Cl)cc3Cl)C(=O)C2Sc2cc(C(C)(C)CC(C)(C)C)ccc2OCCCC)c(Cl)c1 (stereo not shown) [Coupler B3, reference compound]
Gamma ([3]; C2(1.0)): 1.78 | Gamma ([3]; S1(1.0)): 2.10 | Gamma [1, 8]: 4.7 | Gamma [1, 9]: 4.5 | λmax(nm) (+-0.5) [2, 8]: 546.0 nm | λmax(nm) (+-0.5) [2, 9]: 546.5 nm | Delta Dmin Process B-A ([4]; C2(1.0)): 0.071 | Delta Dmin Process B-A ([4]; S1(1.0)): 0.191 | λmax(nm) ([5]; C2(1.0)): 544 nm | λmax(nm) ([5]; S1(1.0)): 548 nm

SMILES: CCCCCCCCCCCCNS(=O)(=O)c1ccc(NC2=NN(c3c(Cl)cc(C#N)cc3Cl)C(=O)C2Sc2cc(C(C)(C)CC(C)(C)C)ccc2OCCCC)c(Cl)c1 (stereo not shown) [Coupler M5]
Gamma [1, 9]: 3.8
